Assay results as given in patent US20260216152A1, “Combinations Comprising Benzodioxol as GLP-1R Agonists for Use in the Treatment of NASH/NAFLD and Related Diseases” (Pfizer Inc., priority 2019, published 2026).

Experiments:
[1] = Western diet fed Sprague Dawley rats, ACCi and DGAT2i as monotherapy and in combination (FIG. 10-18); type: in vivo
From the text: (§1) It appears that the administration of an ACC inhibitor may have positive effects to lower hepatic TGs and potentially other beneficial effects on treatment of NASH.

[2] = in vivo; details: rat
[3] = test system: hepatic DNL; details: Phase 1 study, healthy adult subjects; cited from earlier work
[4] = test system: human ACC isozymes; experiment: Inhibition of human ACC isozymes, incorporation of [14C]-carbonate into [14C]-malonyl-CoA; type: biochemical; details: saturating concentrations of ATP
[5] = Circulating TGs in human subjects; type: in vivo
From the text: as §1

[6] = in vivo; details: monkey
[7] = test system: liver malonyl-CoA; experiment: Liver malonyl-CoA in rats; type: in vivo
[8] = test system: rat ACC isozymes; experiment: Inhibition of rat ACC isozymes, incorporation of [14C]-carbonate into [14C]-malonyl-CoA; type: biochemical; details: saturating concentrations of ATP
[9] = biological target: T1, mouse MGAT1 (Mus musculus, UniProt Q91ZV4); experiment: Selectivity by biochemical assessment versus mouse MGAT1; details: in vitro
T1 sequence (Q91ZV4 1-335): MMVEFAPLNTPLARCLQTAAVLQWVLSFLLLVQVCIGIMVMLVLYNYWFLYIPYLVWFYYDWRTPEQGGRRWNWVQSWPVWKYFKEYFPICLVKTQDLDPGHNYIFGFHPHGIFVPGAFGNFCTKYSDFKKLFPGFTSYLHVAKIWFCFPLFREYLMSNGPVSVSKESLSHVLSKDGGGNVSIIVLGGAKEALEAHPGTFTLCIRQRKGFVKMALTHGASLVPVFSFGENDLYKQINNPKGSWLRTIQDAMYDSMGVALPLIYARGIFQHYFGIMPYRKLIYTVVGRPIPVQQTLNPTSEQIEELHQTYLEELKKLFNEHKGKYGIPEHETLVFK
From the text: (§2) (S)-2-(5-((3-ethoxypyridin-2-yl)oxy)pyridin-3-yl)-N-(tetrahydrofuran-3-yl)pyrimidine-5-carboxamide is an oral, small molecule DGAT2 inhibitor that is postulated to decrease hepatic triglyceride (TG) synthesis and hepatic lipid burden in NAFLD and NASH.

[10] = biological target: T2, MGAT3 (Homo sapiens, UniProt Q86VF5); experiment: Selectivity by biochemical assessment versus MGAT3; details: in vitro
T2 sequence (Q86VF5 1-341): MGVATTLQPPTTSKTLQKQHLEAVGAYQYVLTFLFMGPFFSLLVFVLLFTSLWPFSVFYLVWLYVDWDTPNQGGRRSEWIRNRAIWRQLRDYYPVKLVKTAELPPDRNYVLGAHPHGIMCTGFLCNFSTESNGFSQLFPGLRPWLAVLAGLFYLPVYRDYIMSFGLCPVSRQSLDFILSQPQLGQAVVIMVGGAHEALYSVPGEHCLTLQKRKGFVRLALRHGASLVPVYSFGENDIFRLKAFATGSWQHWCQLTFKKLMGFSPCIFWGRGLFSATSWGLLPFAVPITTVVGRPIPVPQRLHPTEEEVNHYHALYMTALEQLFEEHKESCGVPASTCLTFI
From the text: as §2

[11] = biological target: T3, recombinant human DGAT1 (hDGAT1) (Homo sapiens, UniProt O75907); experiment: Selectivity by biochemical assessment versus hDGAT1; details: in vitro
T3 sequence (O75907 1-488): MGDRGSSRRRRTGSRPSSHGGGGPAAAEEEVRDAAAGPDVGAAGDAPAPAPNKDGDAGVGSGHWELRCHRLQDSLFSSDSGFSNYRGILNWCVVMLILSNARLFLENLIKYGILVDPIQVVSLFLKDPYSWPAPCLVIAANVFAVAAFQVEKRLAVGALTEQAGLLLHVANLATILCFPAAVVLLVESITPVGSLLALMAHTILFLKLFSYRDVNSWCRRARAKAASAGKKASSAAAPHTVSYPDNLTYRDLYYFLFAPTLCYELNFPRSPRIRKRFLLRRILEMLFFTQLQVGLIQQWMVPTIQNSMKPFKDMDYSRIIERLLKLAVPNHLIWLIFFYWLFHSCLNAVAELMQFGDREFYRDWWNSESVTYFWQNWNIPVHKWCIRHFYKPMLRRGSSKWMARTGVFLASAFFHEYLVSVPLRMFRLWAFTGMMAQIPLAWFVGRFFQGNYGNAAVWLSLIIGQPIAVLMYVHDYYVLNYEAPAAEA
From the text: as §2

[12] = Longer-term studies in western diet fed rats; type: in vivo
From the text: as §2

[13] = biological target: monoacylglycerol acyltransferase 2 (MGAT2) (Homo sapiens, UniProt Q3SYC2); experiment: Selectivity by biochemical assessment versus MGAT2; details: in vitro
From the text: as §2

[14] = Plasma triacylglycerol in rats fed a sucrose-diet; type: in vivo
From the text: as §2

[15] = test system: fructose-induced steatosis; experiment: Dietary fructose-feeding model with Sprague Dawley rats; type: in vivo
From the text: [(1R,5S,6R)-3-{2-[(2S)-2-methylazetidin-1-yl]-6-(trifluoromethyl)pyrimidin-4-yl}-3-azabicyclo[3.1.0]hex-6-yl]acetic acid is a potent reversible inhibitor of human KHK-C The fructose, not glucose, component of dietary sugar is unique in its ability to promote features of metabolic syndrome, including steatosis, insulin resistance, and obesity.

[16] = Thermodynamic stability of crystal forms versus water activity; type: physicochemical; details: ambient temperature; 0.2 = 20% RH
Method: Form 1 of Example ACCi is anhydrous and is thermodynamically stable below a water activity of about 0.2 (20% RH) at ambient temperature. Characteristic PXRD peaks of Form 1 of Example ACCi, expressed as 2θ+0.2° 2θ are at 9.6, 10.7, and 11.3.
Form 2 of Example ACCi is a trihydrate and is thermodynamically stable above a water activity of about 0.2 at ambient temperature and 20% RH. Characteristic PXRD peaks of Form 2 of Example ACCi, expressed as 2θ+0.2° 2θ are at 8.4, 9.0, 10.5, 15.0, and 24.7.

[17] = test system: circulating FGF19; experiment: Circulating FGF19 levels after single and multiple doses; type: in vivo
From the text: Pharmacological activation of […] has been proposed as a target for the treatment of NASH (Cariou 2008, Porez et al 2012). […] The nuclear receptor FXR, also known as the Bile Acid Receptor (BAR; NR1H4), is responsible for modulating bile acid production, conjugation, and elimination.

monoacylglycerol acyltransferase 2 (MGAT2), sequence (Q3SYC2 whole entry): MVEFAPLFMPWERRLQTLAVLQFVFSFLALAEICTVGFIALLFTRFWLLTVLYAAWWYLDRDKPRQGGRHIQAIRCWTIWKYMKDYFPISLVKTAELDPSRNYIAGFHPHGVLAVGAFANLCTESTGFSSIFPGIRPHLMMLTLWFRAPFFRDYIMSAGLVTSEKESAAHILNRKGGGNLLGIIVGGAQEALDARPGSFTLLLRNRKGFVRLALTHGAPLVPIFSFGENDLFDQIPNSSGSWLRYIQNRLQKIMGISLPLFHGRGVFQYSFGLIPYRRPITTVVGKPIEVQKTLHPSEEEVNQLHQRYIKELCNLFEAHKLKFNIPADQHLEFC

SMILES: COc1cc(C(=O)N2CCC3(CC2)CC(=O)c2c(cnn2C(C)C)C3)cc(-c2ccc(C(=O)O)cc2)n1 [Example ACCi, 4-(4-(1-isopropyl-7-oxo-1,4,6,7-tetrahydrospiro[indazole-5,4′-piperidine]-1′-carbonyl)-6-methoxypyridin-2-yl)benzoic Acid]
- circulating TGs (generally measured from plasma) [1]: elevations in circulating TGs
- Kp [2]: ≥ 100
- hepatic DNL [3]: suppress hepatic DNL
- inhibition of incorporation of [14C]-carbonate into [14C]-malonyl-CoA [4]: inhibited incorporation of [^14C]-carbonate into [^14C]-malonyl-CoA in a concentration-dependent manner
- circulating TGs [5]: elevations in circulating TGs
- Kp [6]: ≥ 100
- liver malonyl-CoA [7]: dose and free plasma concentration-dependent reductions in liver malonyl-CoA
- inhibition of incorporation of [14C]-carbonate into [14C]-malonyl-CoA [8]: inhibited incorporation of [^14C]-carbonate into [^14C]-malonyl-CoA in a concentration-dependent manner

SMILES: CCOc1cccnc1Oc1cncc(-c2ncc(C(=O)N[C@H]3CCOC3)cn2)c1 [Example DGAT2i, (S)-2-(5-((3-ethoxypyridin-2-yl)oxy)pyridin-3-yl)-N-(tetrahydrofuran-3-yl)pyrimidine-5-carboxamide]
- selectivity versus mouse MGAT1 [9]: > 2000 fold
- selectivity versus MGAT3 [10]: > 2000 fold
- selectivity versus hDGAT1 [11]: > 2000 fold
- hepatic lipid accumulation [12]: reduced
- plasma triacylglycerol [12]: reduced
- selectivity versus MGAT2 [13]: > 2000 fold
- plasma triacylglycerol [14]: robust, dose-dependent reduction of plasma triacylglycerol

SMILES: C[C@H]1CCN1c1nc(N2C[C@@H]3[C@@H](CC(=O)O)[C@@H]3C2)cc(C(F)(F)F)n1 [Example KHKi, [(1R,5S,6R)-3-{2-[(2S)-2-methylazetidin-1-yl]-6-(trifluoromethyl)pyrimidin-4-yl}-3-azabicyclo[3.1.0]hex-6-yl]Acetic acid]
- incidence of fructose-induced steatosis [15]: reduced the incidence of fructose-induced steatosis

SMILES: COc1cc(C(=O)N2CCC3(CC2)CC(=O)c2c(cnn2C(C)C)C3)cc(-c2ccc(C(=O)O)cc2)n1 [Form 1 of Example ACCi]
- water activity at which the form is thermodynamically stable [16]: < 0.2

SMILES: COc1cc(C(=O)N2CCC3(CC2)CC(=O)c2c(cnn2C(C)C)C3)cc(-c2ccc(C(=O)O)cc2)n1 [Form 2 of Example ACCi]
- water activity at which the form is thermodynamically stable [16]: > 0.2

SMILES: O=C(O)c1cc(F)c2nc(N3C4CC[C@H]3CC(OCc3c(-c5ccccc5OC(F)(F)F)noc3C3CC3)C4)sc2c1 (stereo partly drawn) [Tropifexor, 2-[(1R,3R,5S)-3-({5-cyclopropyl-3-[2-(trifluoromethoxy)phenyl]-1,2-oxazol-4-yl}methoxy)-8-azabicyclo[3.2.1]octan-8-yl]-4-fluoro-1,3-benzothiazole-6-carboxylic acid]
- circulating FGF19 levels [17]: robust, dose-dependent increase in circulating FGF19 levels
